Experimental data as given in the supplement of paper PMC8960247.
Where a name gives a salt, the structure may show the parent alone. ± gives the standard error.

How the values were obtained:
[1] = system: UMB1949 (TSC2-deficient); test: relative viability vs DMSO (fraction); higher = less cytotoxic; conditions: serum: 0.1% FBS, 72 h;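 further: renal angiomyolipoma cell lines screened in 384-well plates, viability normalized per plate to DMSO-treated cells, each plate carrying 50 nM rapamycin and 1 µM staurosporine controls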
[2] = system: 621-102 (TSC2-deficient); test: as above; conditions: serum: 0.1% FBS, 72 h
[3] = system: 621-103 (TSC2-rescued); test: relative viability vs DMSO; higher = less cytotoxic; conditions: serum: 10% FBS, 72 h
[4] = system: 621-102 (TSC2-deficient); test: as above; conditions: serum: 10% FBS, 72 h

Structure (SMILES)	relative viability ([1]; 0.0128 nM)	relative viability ([1]; 0.064 nM)	relative viability ([1]; 0.32 nM)	relative viability ([1]; 1.6 nM)	relative viability ([1]; 8 nM)	relative viability ([1]; 40 nM)	relative viability ([1]; 200 nM)	relative viability ([1]; 1000 nM)	relative viability ([1]; 5000 nM)	relative viability ([2]; 0.0128 nM)	relative viability ([2]; 0.064 nM)	relative viability ([2]; 0.32 nM)	relative viability ([2]; 1.6 nM)	relative viability ([2]; 8 nM)	relative viability ([2]; 40 nM)	relative viability ([2]; 200 nM)	relative viability ([2]; 1000 nM)	relative viability ([2]; 5000 nM)	relative viability ([3]; 0.0001 µM) [%]	relative viability ([3]; 0.001 µM) [%]	relative viability ([3]; 0.01 µM) [%]	relative viability ([3]; 0.1 µM) [%]	relative viability ([3]; 1 µM) [%]	relative viability ([3]; 10 µM) [%]	relative viability ([4]; 0.0001 µM) [%]	relative viability ([4]; 0.001 µM) [%]	relative viability ([4]; 0.01 µM) [%]	relative viability ([4]; 0.1 µM) [%]	relative viability ([4]; 1 µM) [%]	relative viability ([4]; 10 µM) [%]
CC(C)C[C@H](NC(=O)CNC(=O)c1cc(Cl)ccc1Cl)B1OC(=O)C(CC(=O)O)(CC(=O)O)O1 [MLN9708]	1.05	1.02	1.01	1.02	1	0.0169	0.00139	0.00101	0.000797	1.35	1.13	1.2	1.17	1	0.392	0.0117	0.00236	0.000667	99.131 ± 0.04	98.8 ± 0.59	102 ± 2.2	4.63 ± 0.36	1.63 ± 0.029	0.886 ± 0.074	103 ± 2.1	104 ± 2.3	107 ± 4.3	21.9 ± 4.2	3.28 ± 0.3	2.38 ± 0.081
O=c1cc(N2CCOCC2)oc2c(-c3cccc4c3sc3ccccc34)cccc12 [NU7441]	1.06	0.893	1.08	0.961	0.89	0.85	0.236	0.00964	0.00523	1.29	0.918	0.935	0.718	0.623	0.724	0.674	0.227	0.00895	105 ± 2.5	109 ± 1.9	111 ± 1.2	102.6 ± 0.65	101 ± 2.8	56.7 ± 1.8	61.9 ± 2.2	57.3 ± 5.1	78.8 ± 9.5	78.5 ± 3	88.7 ± 5.2	41.2 ± 0.43
Nc1ncnc2c1c(-c1cccc(OCc3ccccc3)c1)cn2C1CC(CN2CCCC2)C1 (stereo not given) [NVP-ADW742]	1.02	1.04	1.13	1.14	1.07	1.09	0.995	0.273	0.0444	1.03	1.02	1.03	1.04	1.05	0.948	0.817	0.724	0.0714	98.4 ± 1	96 ± 1.5	94.3 ± 2.1	96.7 ± 2.4	92.3 ± 6	59.3 ± 0.83	74.8 ± 0.9	61.6 ± 3.1	69.9 ± 9.3	66.3 ± 5.1	77.3 ± 6	70.1 ± 4.5
Cc1ccc(C(=O)Nc2cccc(C(F)(F)F)c2)cc1Nc1nc(-c2cccnc2)nc2c1cnn2C [NVP-BHG712]	1.21	1.1	1.09	1.12	1.12	1.14	0.95	0.301	0.0076	1.3	1.15	1.19	1.1	1.24	1.37	0.67	0.135	0.011	105 ± 1.7	104.74 ± 0.059	102 ± 1.1	95.4 ± 2.5	78.2 ± 1.3	17.4 ± 1.2	108 ± 1.1	108 ± 0.36	107 ± 2.5	102 ± 2.6	99.4 ± 2	33.9 ± 4
COC1=CC(c2cc3ccccc3[nH]2)=N/C1=C\c1[nH]c(C)cc1C [Obatoclax Mesylate]	1.1	1.01	1.06	1.08	1	0.616	0.0115	0.00837	0.0101	1.24	0.96	1.05	1.17	1.06	0.847	0.128	0.00422	0.00238	102.9 ± 0.9	99.7 ± 1.6	96.8 ± 0.97	68.9 ± 2	28.8 ± 0.29	5.57 ± 0.73	116.6 ± 0.46	115 ± 5.2	101.8 ± 0.93	54 ± 2.3	16.9 ± 0.25	5.18 ± 0.8
